Some test systems named below: Malme-3M; NCI-H460; EKVX; NCI-H23; KM12; HCT-15; OVCAR-8; ACHN; CAKI-1; SN12C; HOP-92; OVCAR-5; SK-MEL-28; HT-29; HOP-62; SK-MEL-5; LOX IMVI.
What all share (test): growth of human tumour cells (NCI), 48 h

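48-hour exposure; five concentrations; linearly interpolated endpoints. GI50 marks 50% less growth.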 The source made the active and inactive calls. No stated cut-off is given here; in the data, active = GI50 up to about 1.1 µM and inactive = higher.

`O=C(/C=C/c1ccccc1Cl)c1ccccc1Cl`: the GI50 in the test with Malme-3M was 31.8 µM (inactive); in the test with NCI-H460, 19.2 µM (inactive); in the test on EKVX, 22.4 µM (inactive); in the test with NCI-H23, 21.2 µM (inactive); in the test with KM12, 15.5 µM (inactive); in the test with HCT-15, 14.8 µM. Also, the GI50 was 17.3 µM (inactive) with OVCAR-8; 17.3 µM (inactive) in the test with ACHN; 17.6 µM (inactive) in the test on CAKI-1; 20.6 µM (inactive) in the test with SN12C; 17.1 µM (inactive) in the test with HOP-92; 21.1 µM (inactive) with OVCAR-5. Further, the GI50 with SK-MEL-28 was 19.1 µM (inactive); with HT-29, 18.8 µM (inactive); in the test on HOP-62 it was 47.8 µM (inactive); in the test on SK-MEL-5, 31.6 µM (inactive).
As to `COc1ccc(CNc2cnc3cc(N)ccc3n2)cc1`, the GI50 with Malme-3M is > 100 µM (inactive); in the test with NCI-H460, > 100 µM (inactive); in the test with EKVX it was > 100 µM (inactive); in the test on NCI-H23 it was > 100 µM (inactive); in the test with KM12, > 100 µM (inactive); in the test on HCT-15, greater than 100 µM. Further, the GI50 in the test with LOX IMVI, in the test with OVCAR-8, in the test with ACHN, in the test with SN12C, in the test on OVCAR-5 and with SK-MEL-28 was > 100 µM (inactive) throughout. Further, the GI50 with HT-29, in the test with HOP-62 and in the test on SK-MEL-5 was > 100 µM (inactive) throughout.
As to `CC[C@@]12N=C(N(C)C)C[C@]1(O)ON=C2C`, the GI50 in the test on Malme-3M was > 100 µM (inactive); in the test on NCI-H460, > 100 µM (inactive); in the test on EKVX it was > 100 µM (inactive); in the test on NCI-H23, > 100 µM (inactive); with KM12, > 100 µM (inactive); with HCT-15 it was greater than 100 µM. Moreover, the GI50 with OVCAR-8, in the test with ACHN, in the test with CAKI-1, in the test on SN12C, with HOP-92 and in the test with SK-MEL-28 was > 100 µM (inactive) in each case. Also, the GI50 with HT-29 and with SK-MEL-5 was > 100 µM (inactive) in each case.
As for `O=C(c1ccccc1)C1CCCCN1C(=O)c1ccccc1` (centres undefined), the GI50 in the test with Malme-3M was > 100 µM (inactive); in the test on NCI-H460, > 100 µM (inactive); in the test on KM12, > 100 µM (inactive); with HCT-15, greater than 100 µM; with OVCAR-8, > 100 µM (inactive); with ACHN it was > 100 µM (inactive). In addition, the GI50 in the test on CAKI-1, with SN12C, in the test with SK-MEL-28, in the test with HOP-62 and in the test on SK-MEL-5 was > 100 µM (inactive) each time.
With `O=C1C2C=CC(C2)C(c2ccc(O)cc2)N1O` (centres undefined), the GI50 with Malme-3M, with NCI-H460, in the test on EKVX, with NCI-H23, with KM12 and with OVCAR-8 was > 100 µM (inactive) throughout. Further, the GI50 in the test with ACHN, in the test on CAKI-1, in the test with SN12C, in the test with HOP-92, with OVCAR-5 and in the test on SK-MEL-28 was > 100 µM (inactive) in each case. For the same molecule, the GI50 in the test with HT-29, in the test with HOP-62 and in the test on SK-MEL-5 was > 100 µM (inactive) in each case.
Consider `CC1=C(C(=O)Nc2ccccc2)C(c2cc(Cl)cc(Cl)c2)C(C(=O)Nc2ccccc2)=C(C)N1`, for which the GI50 was 14.4 µM (inactive) in the test with Malme-3M; 18.6 µM (inactive) with NCI-H460; 17.4 µM (inactive) in the test on EKVX; 5.37 µM (inactive) with NCI-H23; 2.92 µM (inactive) in the test with KM12; 1.71 µM in the test with HCT-15. Also, the GI50 in the test on LOX IMVI was 4.79 µM (inactive); in the test on OVCAR-8, 10.5 µM (inactive); in the test on ACHN, 8.15 µM (inactive); with CAKI-1, 12.1 µM (inactive); with SN12C, 10.8 µM (inactive); with OVCAR-5 it was 19.4 µM (inactive). For the same molecule, the GI50 with SK-MEL-28 is 14.2 µM (inactive); in the test with HT-29, 4.65 µM (inactive); with HOP-62, 13.6 µM (inactive); in the test with SK-MEL-5, 13.8 µM (inactive).
On to `c1ccc(C2=NN3CN(N2)c2ccccc2OCCCOc2ccccc23)cc1`, for which the GI50 in the test on Malme-3M was > 100 µM (inactive); with NCI-H460, > 100 µM (inactive); with EKVX, > 100 µM (inactive); in the test on NCI-H23 it was > 100 µM (inactive); in the test with KM12 it was > 100 µM (inactive); in the test on HCT-15, greater than 100 µM. In addition, the GI50 in the test with LOX IMVI, in the test on OVCAR-8, in the test with ACHN, in the test with SN12C, in the test with OVCAR-5 and in the test on SK-MEL-28 was > 100 µM (inactive) throughout. Besides, the GI50 in the test on HT-29, in the test with HOP-62 and in the test with SK-MEL-5 was > 100 µM (inactive) in each case.
As for `N#CC1C(C#N)C2(c3ccccc3)C(c3ccccc3)=NN(c3ccccc3)CC12` (centres undefined), the GI50 in the test on Malme-3M is > 100 µM (inactive); in the test on NCI-H460 it was > 100 µM (inactive); in the test on EKVX, > 100 µM (inactive); in the test on KM12, > 100 µM (inactive); in the test on HCT-15, greater than 100 µM; in the test with LOX IMVI, > 100 µM (inactive). In addition, the GI50 in the test on OVCAR-8, with ACHN, with CAKI-1, in the test on SN12C, in the test with OVCAR-5 and in the test with SK-MEL-28 was > 100 µM (inactive) in each case. Further, the GI50 in the test on SK-MEL-5 is > 100 µM (inactive).
Take `CC1(C)S[C@H](c2ccccc2C(=O)O)N[C@@H]1CC(=O)O`: the GI50 was > 100 µM (inactive) in the test with NCI-H460; > 100 µM (inactive) in the test with EKVX; > 100 µM (inactive) in the test on NCI-H23; > 100 µM (inactive) with KM12; greater than 100 µM in the test with HCT-15; > 100 µM (inactive) in the test with LOX IMVI. Besides, the GI50 in the test with OVCAR-8, in the test with ACHN, in the test on SN12C, with SK-MEL-28, with HT-29 and in the test on HOP-62 was > 100 µM (inactive) each time. For the same molecule, the GI50 in the test on SK-MEL-5 is > 100 µM (inactive).
As to `COC(=O)C(C(=O)C(=O)Nc1cccc(C)c1)C1=NC(N)SS1` (centres undefined), the GI50 with Malme-3M was > 100 µM (inactive); in the test on NCI-H460, > 100 µM (inactive); with EKVX, > 100 µM (inactive); with NCI-H23 it was > 100 µM (inactive); in the test on KM12, > 100 µM (inactive); in the test with HCT-15, greater than 100 µM. The GI50 with LOX IMVI, in the test with OVCAR-8, in the test with ACHN, in the test on CAKI-1, in the test with SN12C and in the test with OVCAR-5 was > 100 µM (inactive) in each case. The GI50 in the test on SK-MEL-28, in the test on HT-29, in the test with HOP-62 and in the test on SK-MEL-5 was > 100 µM (inactive) throughout.

Values taken from ChEMBL document CHEMBL1201862, “PubChem BioAssay data set” (2004).
